# In PMC12304293, “Combatting virulent gut bacteria by inhibiting the biosynthesis of a two-component lanthipeptide toxin” (Nature Communications, 2025):
# Values joined by “and” are separate entries in the source; they are usually repeats but may differ in a detail not shown here. Identical values can stand only once. Like-named read-outs stand apart in the source and are kept apart here. Non-standard residues stand in square brackets, D forms with d. Residues, ends and D or L forms follow the SMILES beside them. *: point of attachment. boroGlu = O=C(O)CC[C@H](N*)B(O)O; Gly(cPr) = N[C@H](C(=O)O)C1CC1
# Tests used:
# [1] = system: C+ E. faecalis (FA2-2 (pAM714), ATCC 29212); assay: Solution-phase hemolysis assay with C+ E. faecalis and rabbit erythrocytes; format: cell-based, Enterococcus faecalis
# Excerpt: To test this hypothesis, a solution-phase hemolysis assay was developed, and this assay was used to monitor the effect of 9 on the hemolytic activity of several strains of E. faecalis (Fig. 8A). The cytolysin BGC is part of conjugative plasmid pAD1[64]. E. faecalis FA2-2 (-pAD1) lacks pAD1 and E. faecalis FA2-2 (pAM9055) is defective in cylA[27],[64]. Consistent with previous findings, both strains were not hemolytic (Fig. 8A).
# A Treatment of an inoculum (OD600 = 0.35) of washed E. faecalis cells with 100 μM inhibitor 9 ( + 9), in the presence of washed rabbit erythrocytes. The hemolytic activity decreased relative to untreated controls (− 9). In total, four biological replicates (n = 4) for each condition were performed. Error bars represent the standard deviation and are centered at the mean. B Assessment of the ability of inhibitor 9 to block the hemolytic activity of live E. faecalis over a range of inhibitor concentrations under conditions described for (A). […] Errors in the EC50 are the errors calculated during the non-linear concatenate fit. C LCMS analysis of the concentration of CylLS” extracted from overnight cultures of C+ E. faecalis ATCC 29212 treated with 9 or vehicle. CylLS” extract concentrations were determined by comparison to an internal standard of ^15N,^13C-labeled CylLS”. Four biological replicates were performed (n = 4). Errors bars are centered at the mean and represent the standard of deviation. […] Four biological replicates were performed (n = 4). Error bars are centered at the mean and represent the standard of deviation. Statistical significance was calculated using a two sample and two sided t test for (A) and (C) and a one sample one sided t test for (D). **P < 0.01, ***P < 0.001. Source data are provided as a Source Data file.
# Rabbit erythrocytes (Hemostat) were washed with cold, sterile PBS and diluted in BHI to a concentration of 1% v/v. A 3 mL overnight culture of E. faecalis was centrifuged (4000 × g, 10 min) and the pellet was resuspended in 7 mL of BHI and the suspension was centrifuged (4000 × g, 10 min). The pellet was resuspended in BHI to achieve an OD600 of 1.4 and 50 µL of this suspension was added to a well containing 50 µL of inhibitor (400 µM). The inhibitor and the E. faecalis were incubated at room temperature for 10 min before adding 100 µL of 1% v/v rabbit erythrocytes in BHI. The inhibitor-free control well contained the same concentration of bacteria and rabbit erythrocytes. The sterile negative control and sterile positive control contained 100 µL of BHI and 100 µL of 1% v/v rabbit erythrocytes. […] The plate was then placed on ice and centrifuged at 1000 × g for 10 min to pellet all the remaining cellular material. The supernatant was diluted 10-fold in PBS and the absorbance at 415 nm was measured. For each condition, four wells were prepared and analyzed.
# [2] = system: E. faecalis FA2-2 (pAM714), E. faecalis ATCC 29212; format: cell-based, Enterococcus faecalis; settings: for growth curve reading, ATCC 29212 +9: E. faecalis ATCC 29212 with 9; for growth curve reading, ATCC 29212 +9 / growth curve reading, pAM714 +9: trials 1-3; for growth curve reading, pAM714 +9: E. faecalis pAM714 with 9
# Experimental: To a 96-well plate, BHI media was added containing 200 µM of inhibitor 9. An overnight culture of E. faecalis was diluted to a concentration of 10^6 CFU/mL and an equal volume of this culture was added to the well containing inhibitor. A growth control was prepared by combining the diluted bacterial cells with an equal volume of sterile BHI. A sterility control well was filled with sterile BHI to the same volume. The 96-well plate was transferred to a plate reader preheated to 37 °C and the plate was shaken continuously. The OD600 of each well was measured over the course of 24 h. Uncorrected OD600 values were plotted as a function of time. […]
# or B) E. faecalis ATCC 29212. Wells containing B HI media were inocul ated with 1 x 106 C F U / m L of E. faecalis .I nhibitor 9 was added to achieve a well concentration of 100 µM. A growth control well not containing 9 an d a sterile control not co ntaining bacteria were s et up on the same plate.
# The plate was incubated with shaking at 37 ̊C and the OD600 was measured every 30 min for 18h.
# This experiment was conducted on three biological samples (n = 3). Error bars represent the standard of devi ation and are c enter ed at the me an. Source data are p rovided as a Source Data file. […]
smiles,measurement,setting,value
CC(=O)NCC(=O)N[C@@H](CC(=O)O)C(=O)N[C@H](C(=O)N[C@@H](CCC(N)=O)C(=O)N[C@@H](C)C(=O)N[C@@H](CCC(=O)O)B(O)O)C1CC1 [Compound 9] (Ac-GD[Gly(cPr)]QA-boroGlu),"hemolysis, absorbance at 415 nm (Figure 8A), replicates","[1]; ATCC29212 +9, 100 μM",0.1606 and 0.1785 and 0.1723 and 0.2311
same,hemolysis relative to untreated cells,"[1]; C+ E. faecalis ATCC 29212, 100 μM, rabbit erythrocytes",significantly reduced
same,hemolytic activity relative to untreated cells,"[1]; E. faecalis FA2-2 (pAM714), 100 μM, rabbit erythrocytes",significantly reduced
same,"OD 415 nm (Figure 8B), trials 1 and 2",[1]; log(concentration of Inhibitor 9 (uM)) 1,0.3132 and 0.3077
same,"OD 415 nm (Figure 8B), trials 1 and 2",[1]; log(concentration of Inhibitor 9 (uM)) 1.39794,0.3207 and 0.274
same,"OD 415 nm (Figure 8B), trials 1 and 2",[1]; log(concentration of Inhibitor 9 (uM)) 1.69897,0.2734 and 0.2373
same,"OD 415 nm (Figure 8B), trials 1 and 2",[1]; log(concentration of Inhibitor 9 (uM)) 1.87506,0.2493 and 0.2138
same,"OD 415 nm (Figure 8B), trials 1 and 2",[1]; log(concentration of Inhibitor 9 (uM)) 2,0.2161 and 0.1917
same,"OD 415 nm (Figure 8B), trials 1 and 2",[1]; log(concentration of Inhibitor 9 (uM)) 2.09691,0.2085 and 0.1864
same,"OD 415 nm (Figure 8B), trials 1 and 2",[1]; log(concentration of Inhibitor 9 (uM)) 2.17609,0.1972 and 0.1808
same,"OD 415 nm (Figure 8B), trials 1 and 2",[1]; log(concentration of Inhibitor 9 (uM)) 2.30103,0.2237 and 0.2008
same,"hemolysis, absorbance at 415 nm (Figure 8A), replicates","[1]; pAM714 +9, 100 μM",0.2309 and 0.2273 and 0.2512 and 0.1929
same,growth of C+ E. faecalis,"[2]; 100 µM, FA2-2 (pAM714) or ATCC 29212",did not impact the growth
same,"growth curve reading, ATCC 29212 +9",[2]; time 0 h,0.1154 and 0.116 and 0.0922
same,"growth curve reading, ATCC 29212 +9",[2]; time 0.5 h,0.0985 and 0.1041 and 0.0924
same,"growth curve reading, ATCC 29212 +9",[2]; time 1 h,0.1003 and 0.1065 and 0.0941
same,"growth curve reading, ATCC 29212 +9",[2]; time 4 h,0.3147 and 0.3334 and 0.308
same,"growth curve reading, ATCC 29212 +9",[2]; time 4.5 h,0.4828 and 0.507 and 0.4713
same,"growth curve reading, ATCC 29212 +9",[2]; time 5 h,0.7061 and 0.7328 and 0.6866
same,"growth curve reading, ATCC 29212 +9",[2]; time 6 h,0.8111 and 0.8333 and 0.7942
same,"growth curve reading, ATCC 29212 +9",[2]; time 6.5 h,0.8209 and 0.8395 and 0.8063
same,"growth curve reading, ATCC 29212 +9",[2]; time 7 h,0.8266 and 0.8438 and 0.8065
same,"growth curve reading, ATCC 29212 +9",[2]; time 8 h,0.8109 and 0.8262 and 0.7852
same,"growth curve reading, ATCC 29212 +9",[2]; time 8.5 h,0.7898 and 0.8142 and 0.7555
same,"growth curve reading, ATCC 29212 +9",[2]; time 9 h,0.756 and 0.7924 and 0.7138
same,"growth curve reading, ATCC 29212 +9",[2]; time 9.5 h,0.7216 and 0.7609 and 0.6743
same,"growth curve reading, ATCC 29212 +9",[2]; time 10 h,0.6983 and 0.7557 and 0.6452
same,"growth curve reading, ATCC 29212 +9",[2]; time 10.5 h,0.6599 and 0.7472 and 0.6197
same,"growth curve reading, ATCC 29212 +9",[2]; time 11 h,0.651 and 0.7261 and 0.5927
same,"growth curve reading, ATCC 29212 +9",[2]; time 12 h,0.5996 and 0.6855 and 0.5551
same,"growth curve reading, ATCC 29212 +9",[2]; time 12.5 h,0.6003 and 0.6798 and 0.5403
same,"growth curve reading, ATCC 29212 +9",[2]; time 13 h,0.594 and 0.6632 and 0.5265
same,"growth curve reading, ATCC 29212 +9",[2]; time 13.5 h,0.5622 and 0.6648 and 0.515
same,"growth curve reading, ATCC 29212 +9",[2]; time 14 h,0.5532 and 0.6505 and 0.5057
same,"growth curve reading, ATCC 29212 +9",[2]; time 14.5 h,0.547 and 0.6403 and 0.4947
same,"growth curve reading, ATCC 29212 +9",[2]; time 15 h,0.5331 and 0.6268 and 0.5432
same,"growth curve reading, ATCC 29212 +9",[2]; time 15.5 h,0.5632 and 0.6227 and 0.5048
same,"growth curve reading, ATCC 29212 +9",[2]; time 16 h,0.5401 and 0.6149 and 0.5008
same,"growth curve reading, ATCC 29212 +9",[2]; time 16.5 h,0.5274 and 0.6109 and 0.5013
same,"growth curve reading, ATCC 29212 +9",[2]; time 17 h,0.5274 and 0.5922 and 0.4935
same,"growth curve reading, ATCC 29212 +9",[2]; time 17.5 h,0.5197 and 0.5739 and 0.5382
same,"growth curve reading, ATCC 29212 +9",[2]; time 18 h,0.5155 and 0.5767 and 0.5324
same,"growth curve reading, pAM714 +9",[2]; time 0 h,0.0946 and 0.0915 and 0.093
same,"growth curve reading, pAM714 +9",[2]; time 0.5 h,0.0971 and 0.0931 and 0.0938
same,"growth curve reading, pAM714 +9",[2]; time 1 h,0.099 and 0.095 and 0.0956
same,"growth curve reading, pAM714 +9",[2]; time 4 h,0.1926 and 0.195 and 0.1996
same,"growth curve reading, pAM714 +9",[2]; time 4.5 h,0.2491 and 0.255 and 0.2626
same,"growth curve reading, pAM714 +9",[2]; time 5 h,0.3385 and 0.3521 and 0.3631
same,"growth curve reading, pAM714 +9",[2]; time 6 h,0.6065 and 0.6337 and 0.65
same,"growth curve reading, pAM714 +9",[2]; time 6.5 h,0.7256 and 0.7465 and 0.7496
same,"growth curve reading, pAM714 +9",[2]; time 7 h,0.7199 and 0.7425 and 0.7485
same,"growth curve reading, pAM714 +9",[2]; time 8 h,0.7208 and 0.7411 and 0.7548
same,"growth curve reading, pAM714 +9",[2]; time 8.5 h,0.7272 and 0.7466 and 0.7599
same,"growth curve reading, pAM714 +9",[2]; time 9 h,0.7255 and 0.7488 and 0.7571
same,"growth curve reading, pAM714 +9",[2]; time 9.5 h,0.7184 and 0.7445 and 0.7497
same,"growth curve reading, pAM714 +9",[2]; time 10 h,0.708 and 0.736 and 0.7402
same,"growth curve reading, pAM714 +9",[2]; time 10.5 h,0.6972 and 0.7258 and 0.7305
same,"growth curve reading, pAM714 +9",[2]; time 11 h,0.6856 and 0.717 and 0.7218
same,"growth curve reading, pAM714 +9",[2]; time 12 h,0.6642 and 0.6996 and 0.7054
same,"growth curve reading, pAM714 +9",[2]; time 12.5 h,0.6586 and 0.6909 and 0.6988
same,"growth curve reading, pAM714 +9",[2]; time 13 h,0.6446 and 0.6836 and 0.6924
same,"growth curve reading, pAM714 +9",[2]; time 13.5 h,0.6425 and 0.6781 and 0.6878
same,"growth curve reading, pAM714 +9",[2]; time 14 h,0.6308 and 0.6721 and 0.6814
same,"growth curve reading, pAM714 +9",[2]; time 14.5 h,0.6266 and 0.6677 and 0.6764
same,"growth curve reading, pAM714 +9",[2]; time 15 h,0.6144 and 0.6613 and 0.6745
same,"growth curve reading, pAM714 +9",[2]; time 15.5 h,0.6099 and 0.6586 and 0.6678
same,"growth curve reading, pAM714 +9",[2]; time 16 h,0.6043 and 0.6548 and 0.6659
same,"growth curve reading, pAM714 +9",[2]; time 16.5 h,0.6012 and 0.6523 and 0.6623
same,"growth curve reading, pAM714 +9",[2]; time 17 h,0.5956 and 0.6495 and 0.6597
same,"growth curve reading, pAM714 +9",[2]; time 17.5 h,0.5906 and 0.6489 and 0.6599
same,"growth curve reading, pAM714 +9",[2]; time 18 h,0.5896 and 0.647 and 0.6581
